# Entries after “also recorded” stand apart in the source; their conditions may differ. Read-outs that look alike come from different tables or passages of the source.
# How the values were obtained:
# [1] = tested on: pancreas; assay: pancreas pathology / toxicity after intra-arterial sP injection in rodents; format: in vivo, mouse
# Excerpt: Both islets are surrounded by normal exocrine pancreas tissue without any lesions typical for pancreatitis.
# For disease induction, the standard experimental pancreatitis model employs multiple high dose injections of the toxic secretagogue caerulein (Koh et al., J. Cell. Mol. Med. 15, 2139-2149 (2011)).
# [2] = tested on: pancreas; conditions: intra-arterial injection, recent-onset diabetic mice, dose range 0.01-250 nmol/kg; cited from earlier work
# [3] = tested on: pancreas; assay: large animal study of pancreatic sP injection via the celiac artery; format: in vivo, dog
# Description: A large animal study in dogs has recently been completed, seeking evidence for sP-induced pancreas toxicity following pancreatic injection of sP via the celiac artery. […] The injections were conducted by the Sick Kids' clinical imaging team. Since this VanilloidGenetics-sponsored study is unlikely to be published by itself, excerpt imaging data are provided in the Protocol Addendum, showing the pancreas-selective, rapidly transient (˜7 min) sP effect as measured with a co-injected, inert blue dye marker. The short-lived, physiological sP responses (hyperemia→pancreas→selective hyperperfusion and extravasation→normal pancreas appearance) illustrate the core effects expected to be duplicated in T1D patients.
# A large animal study of pancreatic sP injection in dogs, using modern pancreatitis diagnostics is currently being conducted (Mansfield et al., J. Vet. Diagn. Invest. 23, 691-697 (2011)) and histopathology for the detection of possible pancreatitis lesions. Data are expected to be complete within about two weeks of this writing, in time for the anticipated Pre-CTA meeting. Dogs are a rational choice of large animal experimental model, since Dogs spontaneously develop pancreatitis, have successfully been used in studies of experimental pancreatitis and well tested diagnostics are available (Trivedi et al., J. Vet. Intern. Med. 25, 1241-1247 (2011)).
# [4] = earlier and current trials, literature and trials registry, cited from earlier work
# [5] = cited from earlier work; for tissue half-life: in vivo
smiles,measurement,setting,value
"CSCC[C@H](NC(=O)[C@H](CC(C)C)NC(=O)CNC(=O)[C@H](Cc1ccccc1)NC(=O)[C@H](Cc1ccccc1)NC(=O)[C@H](CCC(N)=O)NC(=O)[C@H](CCC(N)=O)NC(=O)[C@@H]1CCCN1C(=O)[C@H](CCCCN)NC(=O)[C@@H]1CCCN1C(=O)[C@@H](N)CCCN=C(N)N)C(N)=O [sP, substance P]",tolerability in rodent studies,"[1]; 10, 50, 100 or 250 nmol/kg BW",well tolerated
same,tissue damage or pancreatitis-like disease,[1]; sP injection without caerulein,does not cause tissue damage or pancreatitis-like disease
same,sP pancreas toxicity in rodents,[1]; without caerulein pretreatment,has not been observed
same,pancreas pathology consistent with pancreatitis,[2],has not been observed
same,tolerability in canine studies,"[3]; 10, 50, 100 or 250 nmol/kg BW",well tolerated
same,sP-induced pancreas toxicity in dogs,"[3]; celiac artery injection, study-relevant dose range, blood tests (>1200 assays) and histopathology",not pancreas toxic; also recorded: No drug-induced toxicity was found
same,adverse events of sP celiac injections,[3]; entire canine study,without adverse events
same,toxicity / adverse events in human clinical sP trials,[4],without sP-attributable adverse events
same,toxicity / adverse events in human clinical sP trials,[4]; listed as substance P,lack of toxicity
same,vascular half-life time,[5]; as low as,< 30 s
same,vascular half-life time,[5]; in some locales,up to a minute
same,tissue half-life,[5],< 60 s
same,tissue half-life,[5]; listed as substance P,a minute or less
same,time to inactivation in tissue,[5]; proteolytic degradation and binding to NK1R in tissue,within seconds
